In PubChem BioAssay (NCI):
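Assay format: 96-well plates, 48-hour exposure. Abbreviation: GI50, concentration required for 50% inhibition of growth. TGI: total growth inhibition.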

What was measured:
Assay in all cases: DTP human tumour cell line panel, 48 h
786-0 renal = system: 786-0 renal
A498 renal = system: A498 renal
A549 NSCLC = system: A549 NSCLC
ACHN renal = system: ACHN renal
BT-549 breast = system: BT-549 breast
CAKI-1 renal = system: CAKI-1 renal
CCRF-CEM leukemia = system: CCRF-CEM leukemia
COLO 205 colon = system: COLO 205 colon
DU-145 prostate = system: DU-145 prostate
EKVX NSCLC = system: EKVX NSCLC
HCC-2998 colon = system: HCC-2998 colon
HCT-116 colon = system: HCT-116 colon
HCT-15 colon = system: HCT-15 colon
HL-60(TB) leukemia = system: HL-60(TB) leukemia
HOP-62 NSCLC = system: HOP-62 NSCLC
HOP-92 NSCLC = system: HOP-92 NSCLC
HT29 colon = system: HT29 colon
IGROV1 ovarian = system: IGROV1 ovarian
K-562 leukemia = system: K-562 leukemia
KM12 colon = system: KM12 colon
LOX IMVI melanoma = system: LOX IMVI melanoma
M14 melanoma = system: M14 melanoma
MALME-3M melanoma = system: MALME-3M melanoma
MCF7 breast = system: MCF7 breast
MDA-MB-231 breast = system: MDA-MB-231 breast
MDA-MB-435 = system: MDA-MB-435
MOLT-4 leukemia = system: MOLT-4 leukemia
NCI-H226 lung = system: NCI-H226 lung
NCI-H460 lung = system: NCI-H460 lung
NCI-H522 lung = system: NCI-H522 lung
NCI/ADR-RES ovarian = system: NCI/ADR-RES ovarian
OVCAR-3 ovarian = system: OVCAR-3 ovarian
OVCAR-4 ovarian = system: OVCAR-4 ovarian
OVCAR-5 ovarian = system: OVCAR-5 ovarian
OVCAR-8 ovarian = system: OVCAR-8 ovarian
PC-3 prostate = system: PC-3 prostate
RPMI-8226 leukemia = system: RPMI-8226 leukemia
RXF 393 renal = system: RXF 393 renal
SF-268 CNS = system: SF-268 CNS
SF-295 CNS = system: SF-295 CNS
SF-539 CNS = system: SF-539 CNS
SK-MEL-2 melanoma = system: SK-MEL-2 melanoma
SK-MEL-28 melanoma = system: SK-MEL-28 melanoma
SK-MEL-5 melanoma = system: SK-MEL-5 melanoma
SK-OV-3 ovarian = system: SK-OV-3 ovarian
SN12C renal = system: SN12C renal
SNB-19 CNS = system: SNB-19 CNS
SNB-75 CNS = system: SNB-75 CNS
SR leukemia = system: SR leukemia
SW-620 colon = system: SW-620 colon
T-47D breast = system: T-47D breast
TK-10 renal = system: TK-10 renal
U251 CNS = system: U251 CNS
UACC-257 melanoma = system: UACC-257 melanoma
UACC-62 melanoma = system: UACC-62 melanoma
UO-31 renal = system: UO-31 renal

## C/C(=N\NC(=S)Nc1ccc(Br)cc1)c1cc2ccccc2oc1=O
786-0 renal
  GI50: 2.46 µM
  TGI: 13.5 µM
A498 renal
  GI50: 14.4 µM
  TGI: 31.4 µM
A549 NSCLC
  GI50: 2.39 µM
  TGI: 13.4 µM
ACHN renal
  GI50: 0.76 µM
  TGI: 17.1 µM
BT-549 breast
  GI50: 1.26 µM
  TGI: 6.36 µM
CAKI-1 renal
  GI50: 0.561 µM
  TGI: 9.94 µM
CCRF-CEM leukemia
  GI50: 0.464 µM
  TGI: 9.51 µM
COLO 205 colon
  GI50: 3.34 µM
  TGI: 12.1 µM
DU-145 prostate
  GI50: 1.79 µM
  TGI: 25.8 µM
EKVX NSCLC
  GI50: 2.85 µM
  TGI: 30.8 µM
HCC-2998 colon
  GI50: 1.69 µM
  TGI: 5.52 µM
HCT-116 colon
  GI50: 0.579 µM
  TGI: 12.5 µM
HCT-15 colon
  GI50: 0.404 µM
  TGI: 13.5 µM
HL-60(TB) leukemia
  GI50: 0.44 µM
  TGI: 3.08 µM
HOP-62 NSCLC
  GI50: 0.841 µM
  TGI: 12.6 µM
HOP-92 NSCLC
  GI50: 1.21 µM
  TGI: 18 µM
HT29 colon
  GI50: 3.72 µM
  TGI: 14.4 µM
IGROV1 ovarian
  GI50: 0.84 µM
  TGI: 15.3 µM
K-562 leukemia
  GI50: 0.42 µM
  TGI: 21.1 µM
KM12 colon
  GI50: 0.6 µM
  TGI: 8.23 µM
LOX IMVI melanoma
  GI50: 0.53 µM
  TGI: 5.34 µM
M14 melanoma
  GI50: 0.604 µM
  TGI: 2.22 µM
MALME-3M melanoma
  GI50: 1.12 µM
  TGI: 7 µM
MCF7 breast
  GI50: 0.87 µM
  TGI: 10.9 µM
MDA-MB-231 breast
  GI50: 0.956 µM
  TGI: 25.2 µM
MDA-MB-435
  GI50: 0.353 µM
  TGI: 11.9 µM
MOLT-4 leukemia
  GI50: 0.46 µM
  TGI: 12 µM
NCI-H226 lung
  GI50: 1.28 µM
  TGI: 5.24 µM
NCI-H460 lung
  GI50: 0.462 µM
  TGI: 4.58 µM
NCI-H522 lung
  GI50: 0.582 µM
  TGI: 4.68 µM
NCI/ADR-RES ovarian
  GI50: 0.523 µM
  TGI: 12.8 µM
OVCAR-3 ovarian
  GI50: 0.427 µM
  TGI: 13 µM
OVCAR-4 ovarian
  GI50: 2.24 µM
  TGI: 49.7 µM
OVCAR-5 ovarian
  GI50: 2.46 µM
  TGI: 14.2 µM
OVCAR-8 ovarian
  GI50: 1.12 µM
  TGI: 11.1 µM
PC-3 prostate
  GI50: 0.833 µM
  TGI: 14 µM
RPMI-8226 leukemia
  GI50: 1.21 µM
  TGI: 11.2 µM
RXF 393 renal
  GI50: 1.45 µM
  TGI: 4 µM
SF-268 CNS
  GI50: 0.883 µM
  TGI: 17.2 µM
SF-295 CNS
  GI50: 2.49 µM
  TGI: 7.18 µM
SF-539 CNS
  GI50: 1.33 µM
  TGI: 10.5 µM
SK-MEL-2 melanoma
  GI50: 0.789 µM
  TGI: 8.34 µM
SK-MEL-28 melanoma
  GI50: 0.872 µM
  TGI: 13.1 µM
SK-MEL-5 melanoma
  GI50: 1.19 µM
  TGI: 3.5 µM
SK-OV-3 ovarian
  GI50: 3.12 µM
  TGI: 11.6 µM
SN12C renal
  GI50: 1.59 µM
  TGI: 15.2 µM
SNB-19 CNS
  GI50: 1.41 µM
  TGI: 24.6 µM
SNB-75 CNS
  GI50: 0.615 µM
  TGI: 4.27 µM
SR leukemia
  GI50: 0.314 µM
  TGI: 2.33 µM
SW-620 colon
  GI50: 0.892 µM
  TGI: 15.7 µM
T-47D breast
  GI50: 0.952 µM
  TGI: 11.9 µM
TK-10 renal
  GI50: 4.65 µM
  TGI: 28.3 µM
U251 CNS
  GI50: 0.64 µM
  TGI: 12 µM
UACC-257 melanoma
  GI50: 2.24 µM
  TGI: 8.56 µM
UACC-62 melanoma
  GI50: 0.476 µM
  TGI: 3.71 µM
UO-31 renal
  GI50: 0.587 µM
  TGI: 10.4 µM
